Patent publication US6914045B2, “Glycopeptide antibiotics” (Wyeth Holdings Corporation, priority 2001, dated 2005)
In brackets after ≈: the same amount, converted by molar mass.

Assays:
Assay in all cases: in vitro antibacterial evaluation, MIC by broth dilution
Assay type in all cases: cell-based
Enterococcus sp. = conditions: broth dilution, 18 hours at 35° C.; for MIC Enterococcus faecalis (ATCC 29212): strain ATCC 29212; for MIC Enterococcus faecalis (GC 2242): strain GC 2242; for MIC Enterococcus faecium (GC 2243): strain GC 2243; for MIC Enterococcus faecalis (GC 2691): strain GC 2691; for MIC Enterococcus faecalis (GC 3059): strain GC 3059; for MIC Enterococcus faecalis (GC 4552): strain GC 4552; for MIC Enterococcus faecalis (GC 4553): strain GC 4553; for MIC Enterococcus faecalis (GC 4554): strain GC 4554; for MIC Enterococcus faecium (GC 4556): strain GC 4556; for MIC Enterococcus faecium (GC 4557): strain GC 4557; for MIC Enterococcus avium (GC 4558): strain GC 4558; for MIC Enterococcus faecalis (GC 6189): strain GC 6189
Experimental: (§1) Methods for in vitro Antibacterial Evaluation (Table 1)
(§2) The minimum inhibitory concentration (MIC), the lowest concentration of the antibiotic which inhibits growth of the test organism, is determined by the broth dilution method using Muller-Hinton II […] (Baltimore Biological Laboratories) following the recommendations of the National Committee for Clinical Laboratory Standards [Methods for dilution antimicrobial susceptibility tests for bacteria that grow aerobically, approved standard M7-A2, National Committee for Clinical Laboratory Standards, Villanova, Pa.].
(§3) An inoculum level of 5×10^5 CFU/mL, and a range of antibiotic concentrations (64-0.06 μg/mL) is used. […] The test organisms include a spectrum of Gram-positive bacteria comprised of Staphylococcus sp., Streptococcus sp. and Enterococcus sp. These organisms include recent clinical isolates that are resistant to methicillin, penicillin and/or vancomycin.

Streptococcus sp. = conditions: broth dilution, 18 hours at 35° C.; for MIC Streptococcus pneumoniae (ATCC 6301): strain ATCC 6301; for MIC Streptococcus pneumoniae (GC 1894): strain GC 1894; for MIC Streptococcus pyogenes (GC 4563): strain GC 4563; for MIC Streptococcus agalactiae (GC 4564): strain GC 4564; for MIC Streptococcus pneumoniae (GC 4565): strain GC 4565
Experimental: as §1, §2, §3

Staphylococcus sp. = conditions: broth dilution, 18 hours at 35° C.; for MIC Staphylococcus aureus (ATCC 29213): strain ATCC 29213; for MIC Staphylococcus aureus (GC 1131): strain GC 1131; for MIC Staphylococcus aureus (GC 3051): strain GC 3051; for MIC Staphylococcus aureus (GC 3053): strain GC 3053; for MIC Staphylococcus aureus (GC 4541): strain GC 4541; for MIC Staphylococcus aureus (GC 4542): strain GC 4542; for MIC Staphylococcus aureus-SMITH (GC 4543): strain GC 4543; for MIC Staphylococcus aureus (GC 4544): strain GC 4544; for MIC Staphylococcus aureus (GC 4545): strain GC 4545; for MIC Staphylococcus haemolyticus (GC 4546): strain GC 4546; for MIC Coagulase Negative Staphylococcus (GC 4547): strain GC 4547; for MIC Coagulase Negative Staphylococcus (GC 4548): strain GC 4548; for MIC Coagulase Negative Staphylococcus (GC 4549): strain GC 4549; for MIC Coagulase Negative Staphylococcus (GC 4551): strain GC 4551; for MIC Coagulase Negative Staphylococcus (GC 6257): strain GC 6257
Experimental: as §1, §2, §3

Escherichia coli = conditions: broth dilution, 18 hours at 35° C.; for MIC Escherichia coli (ATCC 25922): strain ATCC 25922; for MIC Escherichia coli (GC 4559): strain GC 4559; for MIC Escherichia coli (GC 4560): strain GC 4560
Outline: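 MIC is the lowest antibiotic concentration (tested 64-0.06 μg/mL) preventing growth of a 5×10^5 CFU/mL inoculum. Determined by broth dilution in Mueller-Hinton II medium following NCCLS standard M7-A2.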

Row | MIC Enterococcus faecalis (ATCC 29212) (Enterococcus sp.) [µg/mL] | MIC Enterococcus faecalis (GC 2242) (Enterococcus sp.) [µg/mL] | MIC Enterococcus faecium (GC 2243) (Enterococcus sp.) [µg/mL] | MIC Enterococcus faecalis (GC 2691) (Enterococcus sp.) [µg/mL] | MIC Enterococcus faecalis (GC 3059) (Enterococcus sp.) [µg/mL] | MIC Enterococcus faecalis (GC 4552) (Enterococcus sp.) [µg/mL] | MIC Enterococcus faecalis (GC 4553) (Enterococcus sp.) [µg/mL] | MIC Enterococcus faecalis (GC 4554) (Enterococcus sp.) [µg/mL] | MIC Enterococcus faecium (GC 4556) (Enterococcus sp.) [µg/mL] | MIC Enterococcus faecium (GC 4557) (Enterococcus sp.) [µg/mL] | MIC Enterococcus avium (GC 4558) (Enterococcus sp.) [µg/mL] | MIC Enterococcus faecalis (GC 6189) (Enterococcus sp.) [µg/mL] | MIC Streptococcus pneumoniae (ATCC 6301) (Streptococcus sp.) [µg/mL] | MIC Streptococcus pneumoniae (GC 1894) (Streptococcus sp.) [µg/mL] | MIC Streptococcus pyogenes (GC 4563) (Streptococcus sp.) [µg/mL] | MIC Streptococcus agalactiae (GC 4564) (Streptococcus sp.) [µg/mL] | MIC Streptococcus pneumoniae (GC 4565) (Streptococcus sp.) [µg/mL] | MIC Staphylococcus aureus (ATCC 29213) (Staphylococcus sp.) [µg/mL] | MIC Staphylococcus aureus (GC 1131) (Staphylococcus sp.) [µg/mL] | MIC Staphylococcus aureus (GC 3051) (Staphylococcus sp.) [µg/mL] | Structure (SMILES) | other results
1 | 128 (≈ 121 µM) | 128 (≈ 121 µM) | 128 (≈ 121 µM) | 128 (≈ 121 µM) | >128 | 128 (≈ 121 µM) | 64 (≈ 60.3 µM) | 128 (≈ 121 µM) | 128 (≈ 121 µM) | 32 (≈ 30.1 µM) | 64 (≈ 60.3 µM) | 128 (≈ 121 µM) | 32 (≈ 30.1 µM) | 32 (≈ 30.1 µM) | 32 (≈ 30.1 µM) | 32 (≈ 30.1 µM) | 64 (≈ 60.3 µM) | 64 (≈ 60.3 µM) | 32 (≈ 30.1 µM) | 64 (≈ 60.3 µM) | CC(c1ccccc1)C1NC(=O)CNC(=O)C(CO)NC(=O)C(C(O)C2CNC(=N)N2C2OC(CO)C(O)C(O)C2O)NC(=O)C(C(O)C2CNC(=N)N2)NC(=O)C(Cc2ccc3oc(-c4ccoc4)nc3c2)NC1=O (stereo not drawn) [Example 38, Cyclo[3-[2-(3-furyl)-1,3-benzoxazol-5-yl]alanyl-3-(2-iminoimidazolidin-4-yl)seryl-3-(3-hexopyranosyl-2-iminoimidazolidin-4-yl)serylserylglycyl-β-methylphenylalanyl]] | MIC Staphylococcus aureus (GC 3053) (Staphylococcus sp.): 64 µg/mL (≈ 60.3 µM); MIC Staphylococcus aureus (GC 4541) (Staphylococcus sp.): 64 µg/mL (≈ 60.3 µM); MIC Staphylococcus aureus (GC 4542) (Staphylococcus sp.): 64 µg/mL (≈ 60.3 µM); MIC Staphylococcus aureus-SMITH (GC 4543) (Staphylococcus sp.): 64 µg/mL (≈ 60.3 µM); MIC Staphylococcus aureus (GC 4544) (Staphylococcus sp.): 64 µg/mL (≈ 60.3 µM); MIC Staphylococcus aureus (GC 4545) (Staphylococcus sp.): 32 µg/mL (≈ 30.1 µM); MIC Staphylococcus haemolyticus (GC 4546) (Staphylococcus sp.): 16 µg/mL (≈ 15.1 µM); MIC Coagulase Negative Staphylococcus (GC 4547) (Staphylococcus sp.): 32 µg/mL (≈ 30.1 µM); MIC Coagulase Negative Staphylococcus (GC 4548) (Staphylococcus sp.): 32 µg/mL (≈ 30.1 µM); MIC Coagulase Negative Staphylococcus (GC 4549) (Staphylococcus sp.): 64 µg/mL (≈ 60.3 µM); MIC Coagulase Negative Staphylococcus (GC 4551) (Staphylococcus sp.): 64 µg/mL (≈ 60.3 µM); MIC Coagulase Negative Staphylococcus (GC 6257) (Staphylococcus sp.): 16 µg/mL (≈ 15.1 µM); MIC Escherichia coli (ATCC 25922) (Escherichia coli): 64 µg/mL (≈ 60.3 µM); MIC Escherichia coli (GC 4559) (Escherichia coli): 64 µg/mL (≈ 60.3 µM); MIC Escherichia coli (GC 4560) (Escherichia coli): 32 µg/mL (≈ 30.1 µM)
2 | 64 (≈ 54.3 µM) | 64 (≈ 54.3 µM) | 32 (≈ 27.2 µM) | 64 (≈ 54.3 µM) | 128 (≈ 109 µM) | 128 (≈ 109 µM) | 16 (≈ 13.6 µM) | 128 (≈ 109 µM) | 4 (≈ 3.39 µM) | 4 (≈ 3.39 µM) | 8 (≈ 6.79 µM) | 64 (≈ 54.3 µM) | 16 (≈ 13.6 µM) | 32 (≈ 27.2 µM) | 8 (≈ 6.79 µM) | 32 (≈ 27.2 µM) | 64 (≈ 54.3 µM) | 16 (≈ 13.6 µM) | 16 (≈ 13.6 µM) | 16 (≈ 13.6 µM) | CC(c1ccccc1)C1NC(=O)CNC(=O)C(CO)NC(=O)C(C(O)C2CNC(=N)N2C2OC(CO)C(O)C(O)C2O)NC(=O)C(C(O)C2CNC(=N)N2)NC(=O)C(Cc2ccc3oc(-c4ccc(OCc5ccccc5)cc4)nc3c2)NC1=O (stereo not drawn) [Example 31, Cyclo[3-[2-[4-(phenylmethoxy)phenyl]-1,3-benzoxazol-5-yl]alanyl-3-(2-iminoimidazolidin-4-yl)seryl-3-(3-hexopyranosyl-2-iminoimidazolidin-4-yl)serylserylglycyl-β-methyl-phenylalanyl]] | MIC Staphylococcus aureus (GC 3053) (Staphylococcus sp.): 16 µg/mL (≈ 13.6 µM); MIC Staphylococcus aureus (GC 4541) (Staphylococcus sp.): 16 µg/mL (≈ 13.6 µM); MIC Staphylococcus aureus (GC 4542) (Staphylococcus sp.): 8 µg/mL (≈ 6.79 µM); MIC Staphylococcus aureus-SMITH (GC 4543) (Staphylococcus sp.): 16 µg/mL (≈ 13.6 µM); MIC Staphylococcus aureus (GC 4544) (Staphylococcus sp.): 16 µg/mL (≈ 13.6 µM); MIC Staphylococcus aureus (GC 4545) (Staphylococcus sp.): 16 µg/mL (≈ 13.6 µM); MIC Staphylococcus haemolyticus (GC 4546) (Staphylococcus sp.): 8 µg/mL (≈ 6.79 µM); MIC Coagulase Negative Staphylococcus (GC 4547) (Staphylococcus sp.): 8 µg/mL (≈ 6.79 µM); MIC Coagulase Negative Staphylococcus (GC 4548) (Staphylococcus sp.): 8 µg/mL (≈ 6.79 µM); MIC Coagulase Negative Staphylococcus (GC 4549) (Staphylococcus sp.): 16 µg/mL (≈ 13.6 µM); MIC Coagulase Negative Staphylococcus (GC 4551) (Staphylococcus sp.): 16 µg/mL (≈ 13.6 µM); MIC Coagulase Negative Staphylococcus (GC 6257) (Staphylococcus sp.): 4 µg/mL (≈ 3.39 µM); MIC Escherichia coli (ATCC 25922) (Escherichia coli): >128 µg/mL; MIC Escherichia coli (GC 4559) (Escherichia coli): >128 µg/mL; MIC Escherichia coli (GC 4560) (Escherichia coli): 32 µg/mL (≈ 27.2 µM)
3 | >128 | >128 | 128 (≈ 117 µM) | >128 | >128 | >128 | 64 (≈ 58.3 µM) | >128 | >128 | 16 (≈ 14.6 µM) | 128 (≈ 117 µM) | >128 | 128 (≈ 117 µM) | 64 (≈ 58.3 µM) | 16 (≈ 14.6 µM) | 64 (≈ 58.3 µM) | 128 (≈ 117 µM) | 128 (≈ 117 µM) | 128 (≈ 117 µM) | 128 (≈ 117 µM) | CCCCCCC(=O)Nc1cc(CC2NC(=O)C(C(C)c3ccccc3)NC(=O)CNC(=O)C(CO)NC(=O)C(C(O)C3CNC(=N)N3C3OC(CO)C(O)C(O)C3O)NC(=O)C(C(O)C3CNC(=N)N3)NC2=O)ccc1O (stereo not drawn) [Example 16, Cyclo[glycyl-β-methylphenylalanyl-3-(heptanamido)tyrosyl-3-(2-iminoimidazolidin-4-yl)seryl-3-(3-hexopyranosyl-2-iminoimidazolidin-4-yl)serylseryl]] | MIC Staphylococcus aureus (GC 3053) (Staphylococcus sp.): 128 µg/mL (≈ 117 µM); MIC Staphylococcus aureus (GC 4541) (Staphylococcus sp.): 64 µg/mL (≈ 58.3 µM); MIC Staphylococcus aureus (GC 4542) (Staphylococcus sp.): 128 µg/mL (≈ 117 µM); MIC Staphylococcus aureus-SMITH (GC 4543) (Staphylococcus sp.): 64 µg/mL (≈ 58.3 µM); MIC Staphylococcus aureus (GC 4544) (Staphylococcus sp.): 128 µg/mL (≈ 117 µM); MIC Staphylococcus aureus (GC 4545) (Staphylococcus sp.): 32 µg/mL (≈ 29.1 µM); MIC Staphylococcus haemolyticus (GC 4546) (Staphylococcus sp.): 8 µg/mL (≈ 7.28 µM); MIC Coagulase Negative Staphylococcus (GC 4547) (Staphylococcus sp.): 16 µg/mL (≈ 14.6 µM); MIC Coagulase Negative Staphylococcus (GC 4548) (Staphylococcus sp.): 32 µg/mL (≈ 29.1 µM); MIC Coagulase Negative Staphylococcus (GC 4549) (Staphylococcus sp.): 4 µg/mL (≈ 3.64 µM); MIC Coagulase Negative Staphylococcus (GC 4551) (Staphylococcus sp.): 32 µg/mL (≈ 29.1 µM); MIC Coagulase Negative Staphylococcus (GC 6257) (Staphylococcus sp.): 8 µg/mL (≈ 7.28 µM); MIC Escherichia coli (ATCC 25922) (Escherichia coli): 32 µg/mL (≈ 29.1 µM); MIC Escherichia coli (GC 4559) (Escherichia coli): 32 µg/mL (≈ 29.1 µM); MIC Escherichia coli (GC 4560) (Escherichia coli): 8 µg/mL (≈ 7.28 µM)
